Test results reported in publication PMC6321601 (Molecules, 2018).

What was measured:
[1] = test system: HepG-2 human hepatocellular carcinoma cells; assay: MTT assay, proliferation of HepG-2 cells; format: cell-based; details: Homo sapiens, HepG2, 72 h incubation, mean of three independent experiments
Method: (§1) HepG-2 human hepatocellular carcinoma cells and L-O2 human normal liver cells were maintained in DMEM culture medium supplemented with 10% FBS at 37 °C under a humidified atmosphere with 5% CO2.
(§2) HepG-2 and L-O2 cells in logarithmic growth phase were seeded into a 96-well plate at 5 × 10^3/well/200 µL. After 12 h, compounds at different concentrations were added and incubated for 72 h at 37 °C, 5% CO2. Then, 20 µL MTT (5 mg/mL) was added into each well and incubated for 4 h. The supernatant was discarded, and the precipitate was dissolved with DMSO. The absorbance of the optical density (OD) at 570 nm was detected using a microplate reader and the IC50 was calculated with GraphPad Prism 5.

[2] = test system: L-O2 human normal liver cells; assay: MTT assay, toxicity against L-O2 normal cells; format: cell-based; details: Homo sapiens, 72 h incubation, mean of three independent experiments
Method: as §1, §2

## CC(=O)OC(C)(C)/C=C/C(=O)[C@](C)(O)C1[C@H](OC(=O)/C=C/c2ccc(C#N)cc2)C[C@@]2(C)C3CC=C4C(C[C@H](O)C(=O)C4(C)C)[C@]3(C)C(=O)C[C@]12C (stereo partly drawn) [Compound 3p, (2S,9R,13R,14S,16R)-17-((R,E)-6-Acetoxy-2-hydroxy-6-methyl-3-oxohept-4-en-2-yl)-2-hydroxy-4,4,9,13,14-pentamethyl-3,11-dioxo-2,3,4,7,8,9,10,11,12,13,14,15,16,17-tetradecahydro-1H-cyclopenta[a]phenanthren-16-yl (E)-3-(4-cyanophenyl)acrylate]
[1]
  IC50: 2.34 ± 0.91 µM
[2]
  IC50: 1.47 ± 0.36 µM

## COc1cc(/C=C/C(=O)O[C@@H]2C[C@@]3(C)C4CC=C5C(C[C@H](O)C(=O)C5(C)C)[C@]4(C)C(=O)C[C@]3(C)C2[C@@](C)(O)C(=O)/C=C/C(C)(C)OC(C)=O)cc(OC)c1 (stereo partly drawn) [Compound 3q, (2S,9R,13R,14S,16R)-17-((R,E)-6-Acetoxy-2-hydroxy-6-methyl-3-oxohept-4-en-2-yl)-2-hydroxy-4,4,9,13,14-pentamethyl-3,11-dioxo-2,3,4,7,8,9,10,11,12,13,14,15,16,17-tetradecahydro-1H-cyclopenta[a]phenanthren-16-yl (E)-3-(3,5-dimethoxyphenyl)acrylate]
[1]
  IC50: 3.85 ± 0.63 µM
[2]
  IC50: 5.25 ± 1.63 µM

## CC(=O)OC(C)(C)/C=C/C(=O)[C@](C)(O)C1[C@H](OC(=O)/C=C/c2ccccc2)C[C@@]2(C)C3CC=C4C(C[C@H](OC(=O)/C=C/c5ccccc5)C(=O)C4(C)C)[C@]3(C)C(=O)C[C@]12C (stereo partly drawn) [Compound 4, (2S,9R,13R,14S,16R)-17-((R,E)-6-Acetoxy-2-hydroxy-6-methyl-3-oxohept-4-en-2-yl)-4,4,9,13,14-pentamethyl-3,11-dioxo-2,3,4,7,8,9,10,11,12,13,14,15,16,17-tetradecahydro-1H-cyclopenta[a]phenanthrene-2,16-diyl (2E,2′E)-bis(3-phenylacrylate)]
[1]
  IC50: > 20 µM
[2]
  IC50: > 20 µM

## CC(=O)OC(C)(C)C=CC(=O)C(C)(O)C1C(OC(=O)CCC(=O)NCCOc2no[n+]([O-])c2S(=O)(=O)c2ccccc2)CC2(C)C3CC=C4C(CC(O)C(=O)C4(C)C)C3(C)C(=O)CC12C [Compound 9a, 3-((l1-oxidanyl)(oxo)(phenyl)-l5-sulfanyl)-4-(2-(4-(((9R,13R,14S,16R)-17-((R,E)-6-acetoxy-2-hydroxy-6-methyl-3-oxohept-4-en-2-yl)-2-Hydroxy-4,4,9,13,14-pentamethyl-3,11-dioxo-2,3,4,7,8,9,10,11,12,13,14,15,16,17-tetradecahydro-1H-cyclopenta[a]phenanthren-16-yl)oxy)-4-oxobutanamido)ethoxy)-1,2,5-oxadiazole 2-oxide]
[1]
  IC50: 0.46 ± 0.14 µM
[2]
  IC50: 0.69 ± 0.43 µM

## CC(=O)OC(C)(C)/C=C/C(=O)[C@](C)(O)C1[C@H](OC(=O)CCC(=O)NCCCOc2no[n+]([O-])c2S(=O)(=O)c2ccccc2)C[C@@]2(C)C3CC=C4C(CC(O)C(=O)C4(C)C)[C@]3(C)C(=O)C[C@]12C (stereo partly drawn) [Compound 9b, 4-(3-(4-(((9R,13R,14S,16R)-17-((R,E)-6-Acetoxy-2-hydroxy-6-methyl-3-oxohept-4-en-2-yl)-2-hydroxy-4,4,9,13,14-pentamethyl-3,11-dioxo-2,3,4,7,8,9,10,11,12,13,14,15,16,17-tetradecahydro-1H-cyclopenta[a]phenanthren-16-yl)oxy)-4-oxobutanamido)propoxy)-3-(phenylsulfonyl)-1,2,5-oxadiazole 2-oxide]
[1]
  IC50: 0.53 ± 0.01 µM
[2]
  IC50: 0.8 ± 0.4 µM

## CC(=O)OC(C)(C)/C=C/C(=O)[C@](C)(O)C1[C@H](OC(=O)CCC(=O)N2CCN(CCOc3no[n+]([O-])c3S(=O)(=O)c3ccccc3)CC2)C[C@@]2(C)C3CC=C4C(CC(O)C(=O)C4(C)C)[C@]3(C)C(=O)C[C@]12C (stereo partly drawn) [Compound 9c, 4-(2-(4-(4-(((9R,13R,14S,16R)-17-((R,E)-6-Acetoxy-2-hydroxy-6-methyl-3-oxohept-4-en-2-yl)-2-hydroxy-4,4,9,13,14-pentamethyl-3,11-dioxo-2,3,4,7,8,9,10,11,12,13,14,15,16,17-tetradecahydro-1H-cyclopenta[a]phenanthren-16-yl)oxy)-4-oxobutanoyl)piperazin-1-yl)ethoxy)-3-(phenylsulfonyl)-1,2,5-oxadiazole 2-oxide]
[1]
  IC50: 0.92 ± 0.16 µM
[2]
  IC50: 2.61 ± 1.77 µM

## CC(=O)OC(C)(C)/C=C/C(=O)[C@](C)(O)C1[C@H](OC(=O)CCC(=O)OCCOc2no[n+]([O-])c2S(=O)(=O)c2ccccc2)C[C@@]2(C)C3CC=C4C(CC(O)C(=O)C4(C)C)[C@]3(C)C(=O)C[C@]12C (stereo partly drawn) [Compound 10a, 4-(2-((4-(((9R,13R,14S,16R)-17-((R,E)-6-Acetoxy-2-hydroxy-6-methyl-3-oxohept-4-en-2-yl)-2-hydroxy-4,4,9,13,14-pentamethyl-3,11-dioxo-2,3,4,7,8,9,10,11,12,13,14,15,16,17-tetradecahydro-1H-cyclopenta[a]phenanthren-16-yl)oxy)-4-oxobutanoyl)oxy)ethoxy)-3-(phenylsulfonyl)-1,2,5-oxadiazole 2-oxide]
[1]
  IC50: 0.82 ± 0.33 µM
[2]
  IC50: 2.04 ± 0.67 µM

## CC(=O)OC(C)(C)/C=C/C(=O)[C@](C)(O)C1[C@H](OC(=O)CCC(=O)OCCCCOc2no[n+]([O-])c2S(=O)(=O)c2ccccc2)C[C@@]2(C)C3CC=C4C(CC(O)C(=O)C4(C)C)[C@]3(C)C(=O)C[C@]12C (stereo partly drawn) [Compound 10c, 4-(4-((4-(((9R,13R,14S,16R)-17-((R,E)-6-Acetoxy-2-hydroxy-6-methyl-3-oxohept-4-en-2-yl)-2-hydroxy-4,4,9,13,14-pentamethyl-3,11-dioxo-2,3,4,7,8,9,10,11,12,13,14,15,16,17-tetradecahydro-1H-cyclopenta[a]phenanthren-16-yl)oxy)-4-oxobutanoyl)oxy)butoxy)-3-(phenylsulfonyl)-1,2,5-oxadiazole 2-oxide]
[1]
  IC50: 0.52 ± 0.09 µM
[2]
  IC50: 2.1 ± 1.41 µM

## CC(=O)OC(C)(C)/C=C/C(=O)[C@](C)(O)C1[C@H](OC(=O)CCC(=O)OCCCCCOc2no[n+]([O-])c2S(=O)(=O)c2ccccc2)C[C@@]2(C)C3CC=C4C(CC(O)C(=O)C4(C)C)[C@]3(C)C(=O)C[C@]12C (stereo partly drawn) [Compound 10d, 4-((5-((4-(((9R,13R,14S,16R)-17-((R,E)-6-Acetoxy-2-hydroxy-6-methyl-3-oxohept-4-en-2-yl)-2-hydroxy-4,4,9,13,14-pentamethyl-3,11-dioxo-2,3,4,7,8,9,10,11,12,13,14,15,16,17-tetradecahydro-1H-cyclopenta[a]phenanthren-16-yl)oxy)-4-oxobutanoyl)oxy)pentyl)oxy)-3-(phenylsulfonyl)-1,2,5-oxadiazole 2-oxide]
[1]
  IC50: 0.64 ± 0.26 µM
[2]
  IC50: 2.62 ± 0.52 µM

## CC(=O)OC(C)(C)/C=C/C(=O)[C@](C)(O)C1[C@H](OC(=O)CCC(=O)OCCCCCCOc2no[n+]([O-])c2S(=O)(=O)c2ccccc2)C[C@@]2(C)C3CC=C4C(CC(O)C(=O)C4(C)C)[C@]3(C)C(=O)C[C@]12C (stereo partly drawn) [Compound 10e, 4-((6-((4-(((9R,13R,14S,16R)-17-((R,E)-6-Acetoxy-2-hydroxy-6-methyl-3-oxohept-4-en-2-yl)-2-hydroxy-4,4,9,13,14-pentamethyl-3,11-dioxo-2,3,4,7,8,9,10,11,12,13,14,15,16,17-tetradecahydro-1H-cyclopenta[a]phenanthren-16-yl)oxy)-4-oxobutanoyl)oxy)hexyl)oxy)-3-(phenylsulfonyl)-1,2,5-oxadiazole 2-oxide]
[1]
  IC50: 1.15 ± 0.24 µM
[2]
  IC50: 3.21 ± 0.09 µM

## CC(=O)OC(C)(C)/C=C/C(=O)[C@](C)(O)C1[C@H](OC(=O)CCC(=O)OCCCCCCCOc2no[n+]([O-])c2S(=O)(=O)c2ccccc2)C[C@@]2(C)C3CC=C4C(CC(O)C(=O)C4(C)C)[C@]3(C)C(=O)C[C@]12C (stereo partly drawn) [Compound 10f, 4-((7-((4-(((9R,13R,14S,16R)-17-((R,E)-6-Acetoxy-2-hydroxy-6-methyl-3-oxohept-4-en-2-yl)-2-hydroxy-4,4,9,13,14-pentamethyl-3,11-dioxo-2,3,4,7,8,9,10,11,12,13,14,15,16,17-tetradecahydro-1H-cyclopenta[a]phenanthren-16-yl)oxy)-4-oxobutanoyl)oxy)heptyl)oxy)-3-(phenylsulfonyl)-1,2,5-oxadiazole 2-oxide]
[1]
  IC50: 0.83 ± 0.38 µM
[2]
  IC50: 3.25 ± 0.4 µM

## CC(=O)OC(C)(C)/C=C/C(=O)[C@](C)(O)C1[C@H](OC(=O)CCC(=O)OCCCCCCCCOc2no[n+]([O-])c2S(=O)(=O)c2ccccc2)C[C@@]2(C)C3CC=C4C(CC(O)C(=O)C4(C)C)[C@]3(C)C(=O)C[C@]12C (stereo partly drawn) [Compound 10g, 4-((8-((4-(((9R,13R,14S,16R)-17-((R,E)-6-Acetoxy-2-hydroxy-6-methyl-3-oxohept-4-en-2-yl)-2-hydroxy-4,4,9,13,14-pentamethyl-3,11-dioxo-2,3,4,7,8,9,10,11,12,13,14,15,16,17-tetradecahydro-1H-cyclopenta[a]phenanthren-16-yl)oxy)-4-oxobutanoyl)oxy)octyl)oxy)-3-(phenylsulfonyl)-1,2,5-oxadiazole 2-oxide]
[1]
  IC50: 1.19 ± 0.55 µM
[2]
  IC50: 4.29 ± 0.66 µM

## CC(=O)OC(C)(C)/C=C/C(=O)[C@](C)(O)C1[C@H](OC(=O)CCC(=O)OCCCCCCCCCOc2no[n+]([O-])c2S(=O)(=O)c2ccccc2)C[C@@]2(C)C3CC=C4C(CC(O)C(=O)C4(C)C)[C@]3(C)C(=O)C[C@]12C (stereo partly drawn) [Compound 10h, 4-((9-((4-(((9R,13R,14S,16R)-17-((R,E)-6-Acetoxy-2-hydroxy-6-methyl-3-oxohept-4-en-2-yl)-2-hydroxy-4,4,9,13,14-pentamethyl-3,11-dioxo-2,3,4,7,8,9,10,11,12,13,14,15,16,17-tetradecahydro-1H-cyclopenta[a]phenanthren-16-yl)oxy)-4-oxobutanoyl)oxy)nonyl)oxy)-3-(phenylsulfonyl)-1,2,5-oxadiazole 2-oxide]
[1]
  IC50: 1.15 ± 0.24 µM
[2]
  IC50: 1.17 ± 0.08 µM
